Where a name gives a salt, the structure may show the parent alone.
Test system: iPSC-CMs, iPSC-ECs and HUVECs phenotypes
Test: ToxPi 2.0 integration of POD values and physicochemical descriptors
Design: species or system human
Details: ToxPi-scaled (0-1) score; for huvec.cyto.24hr / huvec.mito.24hr / huvec.mitoint.24hr / huvec.nma.24hr / huvec.tc.24hr / huvec.mtl.18hr / huvec.tlps.18hr / huvec.tta.18hr / huvec.ttl.18hr: HUVECs; for huvec.mtl.18hr / huvec.tlps.18hr / huvec.tta.18hr / huvec.ttl.18hr / endo.mtl.18hr / endo.tlps.18hr / endo.tta.18hr / endo.ttl.18hr: tube formation; for cm.amp.avg.90min / cm.amp.cv.90min / cm.bpm.90min / cm.cam.90min / cm.decay.rise.90min / cm.mii.90min / cm.mito.90min / cm.spacing.cv.90min / cm.tc.90min / cm.amp.avg.24hrs / cm.amp.cv.24hrs / cm.bpm.24hrs / cm.cam.24hrs / cm.decay.rise.24hrs / cm.mii.24hrs / cm.mito.24hrs / cm.spacing.cv.24hrs / cm.tc.24hrs: iPSC cardiomyocytes; for endo.cyto.24hr / endo.mito.24hr / endo.mitoint.24hr / endo.nma.24hr / endo.tc.24hr / endo.mtl.18hr / endo.tlps.18hr / endo.tta.18hr / endo.ttl.18hr: iPSC endothelial cells
Text: Phenotypic responses were quantitatively assessed using concentration–response modeling as detailed elsewhere ([Sirenko et al. 2017]). Briefly, phenotypic readouts were normalized to vehicle controls and fit to a four-parameter logistic model in R studio software (version 3.1.1; R Development Core Team). Following EPA guidance on dose–response modeling, a cutoff of one standard deviation across means of vehicle control (i.e., 0.5% vol/vol DMSO in cell culture media) wells was applied to determine the point-of-departure (POD) values ([U.S. EPA 2012]). In the absence of a concentration–response, the highest tested concentration (i.e., 100μM ) was assigned as “no observable adverse effect level.” The concentration–response assessment R script, as well as templates for vehicle and concentration–response data, are available as a supplement to Sirenko et al. ([2017]). The ability of physicochemical properties to predict differences in PODs were evaluated by multiregression and mixed-effects modeling using R.
POD values were then integrated using ToxPi 2.0 ([Marvel et al. 2018]) software. In ToxPi, each slice is representative of cell type– and time-point–specific phenotypes. The area of each slice is proportional to the relative value (e.g., bioactivity or physicochemical descriptor value) of the chemical within the data set. ToxPi scores were used to rank PCBs and their metabolites according to their overall bioactivity and to determine variability in total observable biological responses and chemical characteristics for each major metabolite class and chlorination status (mono-, hexa-chlorinated). Additional visualizations such as dumbbell and principal components analysis plots were generated in R Studio (version 1.1.456; R version 3.5.1; R Development Core Team) using the ggplot2 package.

SMILES	huvec.cyto.24hr	huvec.mito.24hr	huvec.mitoint.24hr	huvec.nma.24hr	huvec.tc.24hr	huvec.mtl.18hr	huvec.tlps.18hr	huvec.tta.18hr	huvec.ttl.18hr	cm.amp.avg.90min	cm.amp.cv.90min	cm.bpm.90min	cm.cam.90min	cm.decay.rise.90min	cm.mii.90min	cm.mito.90min	cm.spacing.cv.90min	cm.tc.90min	cm.amp.avg.24hrs	cm.amp.cv.24hrs	further results
O=S(=O)(O)Oc1cc(Cl)c(-c2cc(Cl)ccc2Cl)cc1Cl [4-PCB 52 sulfate]	0.3025	0.4046	0.09717	0.1382	0.3025	0.4309	0.4338	0	0	0.5595	0.2844	0.3731	0.9201	0.4741	0.3306	0.9162	0.09545	0.9127	0	0.4327	cm.bpm.24hrs: 0.3667; cm.cam.24hrs: 0.3358; cm.decay.rise.24hrs: 0.4673; cm.mii.24hrs: 0.2133; cm.mito.24hrs: 0.5368; cm.spacing.cv.24hrs: 0.207; cm.tc.24hrs: 0.5686; endo.cyto.24hr: 0.1547; endo.mito.24hr: 0.1547; endo.mitoint.24hr: 0; endo.nma.24hr: 0; endo.tc.24hr: 0.1212; endo.mtl.18hr: 0.2716; endo.tlps.18hr: 0.4577; endo.tta.18hr: 0.2209; endo.ttl.18hr: 0.2158
Oc1ccc(O)c(-c2ccc(Cl)cc2)c1 [2',5'-diOH-PCB 3, 4-Chloro-2′,5′-dihydroxybiphenyl]	0.7001	0.7865	0.6634	0.309	0.7001	0.9783	0.7891	0.8497	0.663	0.2608	0.5898	0.1802	0.4648	0.2325	0.9473	0.8423	0.3549	0.4501	0.4147	0.7626	cm.bpm.24hrs: 0.7331; cm.cam.24hrs: 0.5361; cm.decay.rise.24hrs: 0.935; cm.mii.24hrs: 1; cm.mito.24hrs: 1; cm.spacing.cv.24hrs: 1; cm.tc.24hrs: 0.9136; endo.cyto.24hr: 0.4719; endo.mito.24hr: 0.4719; endo.mitoint.24hr: 0.1112; endo.nma.24hr: 0.3504; endo.tc.24hr: 0.5028; endo.mtl.18hr: 0.5595; endo.tlps.18hr: 0.8388; endo.tta.18hr: 0.3744; endo.ttl.18hr: 0.3867
Oc1ccccc1-c1ccc(Cl)cc1 [2'-OH-PCB 3]	0.3062	0.3804	0.2116	0.5273	0.3062	0	0.9781	0	0	1	1	0.6048	0.4595	0.9737	0.8925	0.3599	0.3323	0.4365	0.2407	0.05985	cm.bpm.24hrs: 0.1658; cm.cam.24hrs: 0.1217; cm.decay.rise.24hrs: 0.6737; cm.mii.24hrs: 0.7202; cm.mito.24hrs: 0.2606; cm.spacing.cv.24hrs: 0.1842; cm.tc.24hrs: 0.2359; endo.cyto.24hr: 0.1423; endo.mito.24hr: 0.1423; endo.mitoint.24hr: 0; endo.nma.24hr: 0.7069; endo.tc.24hr: 0.06754; endo.mtl.18hr: 0.2097; endo.tlps.18hr: 0.3809; endo.tta.18hr: 0.1099; endo.ttl.18hr: 0.1352
O=C1C=CC(=O)C(c2ccc(Cl)cc2)=C1 [4-Cl-BQ, 2-(4-Chlorophenyl)benzo-2,5-quinone]	1	0.8466	0.9878	0.6676	1	0.9933	0.5585	1	0.8997	0.3159	0.2492	0.1564	0.4034	0.215	0.8851	0.387	0.3114	0	0.3257	0.3094	cm.bpm.24hrs: 0.6578; cm.cam.24hrs: 1; cm.decay.rise.24hrs: 0.8647; cm.mii.24hrs: 0.2031; cm.mito.24hrs: 0.702; cm.spacing.cv.24hrs: 0.7459; cm.tc.24hrs: 0; endo.cyto.24hr: 0.5702; endo.mito.24hr: 0.5702; endo.mitoint.24hr: 0.2683; endo.nma.24hr: 0.3599; endo.tc.24hr: 0.6463; endo.mtl.18hr: 0.5822; endo.tlps.18hr: 0.7309; endo.tta.18hr: 0.1339; endo.ttl.18hr: 0.1969

From paper PMC7377239, “Cardiovascular Effects of Polychlorinated Biphenyls and Their Major Metabolites” (Environmental Health Perspectives, 2020)
